Toxic doses and inconclusive results are not listed. Cut-off read from the data, not from the text of the source: active = T/C of 150% or more; inactive = T/C below 125%.
Test system: L1210 leukemia ip in BDF1 mice, survival T/C
Assay: NCI In Vivo Anticancer Drug Screen. Data for tumor model L1210 Leukemia (intraperitoneal) in B6D2F1 (BDF1) mice
Conditions: endpoint: mean survival time, higher = longer survival
Method in brief: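 Tumor was transplanted into mice, which were then dosed with test compound or vehicle alone. Survival was recorded for each group, and the treated figure was expressed relative to the control figure.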

[1] = dose: 50.0 mg/kg/injection, schedule: Q01DX001 (ip), vehicle: carboxymethylcellulose (CMC)
[2] = dose: 100.0 mg/kg/injection, schedule: Q01DX001 (ip), vehicle: carboxymethylcellulose (CMC)
[3] = dose: 200.0 mg/kg/injection, schedule: Q01DX001 (ip), vehicle: carboxymethylcellulose (CMC)
[4] = dose: 400.0 mg/kg/injection, schedule: Q01DX001 (ip), vehicle: carboxymethylcellulose (CMC)
[5] = dose: 100.0 mg/kg/injection, schedule: Q01DX009 (ip), vehicle: saline
[6] = dose: 100.0 mg/kg/injection, schedule: Q04DX003 (ip), vehicle: saline
[7] = dose: 100.0 mg/kg/injection, schedule: Q01DX009 (ip), vehicle: Klucel (hydroxypropylcellulose) (HPC)
[8] = dose: 100.0 mg/kg/injection, schedule: Q04DX003 (ip), vehicle: Klucel (hydroxypropylcellulose) (HPC)
[9] = dose: 200.0 mg/kg/injection, schedule: Q01DX009 (ip), vehicle: Klucel (hydroxypropylcellulose) (HPC)
[10] = dose: 200.0 mg/kg/injection, schedule: Q04DX003 (ip), vehicle: Klucel (hydroxypropylcellulose) (HPC)
[11] = dose: 400.0 mg/kg/injection, schedule: Q01DX009 (ip), vehicle: Klucel (hydroxypropylcellulose) (HPC)
[12] = dose: 400.0 mg/kg/injection, schedule: Q04DX003 (ip), vehicle: Klucel (hydroxypropylcellulose) (HPC)
[13] = dose: 100.0 mg/kg/injection, schedule: Q04DX003 (ip), vehicle: saline with Tween-80
[14] = dose: 200.0 mg/kg/injection, schedule: Q04DX003 (ip), vehicle: saline with Tween-80
[15] = dose: 400.0 mg/kg/injection, schedule: Q04DX003 (ip), vehicle: saline with Tween-80
[16] = dose: 50.0 mg/kg/injection, schedule: Q01DX009 (ip), vehicle: saline with Tween-80
[17] = dose: 100.0 mg/kg/injection, schedule: Q01DX009 (ip), vehicle: saline with Tween-80
[18] = dose: 200.0 mg/kg/injection, schedule: Q04DX003 (ip), vehicle: saline
[19] = dose: 100.0 mg/kg/injection, schedule: Q04DX002 (ip), vehicle: Klucel (hydroxypropylcellulose) (HPC)
[20] = dose: 200.0 mg/kg/injection, schedule: Q04DX002 (ip), vehicle: Klucel (hydroxypropylcellulose) (HPC)
[21] = dose: 400.0 mg/kg/injection, schedule: Q04DX002 (ip), vehicle: Klucel (hydroxypropylcellulose) (HPC)

Measured: T/C

[N-]=[N+]=NCC1OC(n2cnc3c(NC=O)ncnc32)CC1C(=O)O (stereo not drawn)
inactive: [1] 109 % of control | [2] 101 % of control | [3] 114 % of control | [4] 95 % of control

COc1cc2ccc(CCNCc3ccccc3)cc2cc1OC
inactive: dose: 25.0 mg/kg/injection, schedule: Q01DX009 (ip), vehicle: saline 97 % of control | dose: 50.0 mg/kg/injection, schedule: Q01DX009 (ip), vehicle: saline 91 % of control | [5] 90 % of control | [6] 87 % of control

O=C(Nc1ccc(CN2CCOCC2)cc1)c1ccc(C(=O)Nc2ccc(CN3CCOCC3)cc2)cc1
inactive: dose: 37.5 mg/kg/injection, schedule: Q01DX Z (ip), vehicle: water 86 % of control | dose: 75.0 mg/kg/injection, schedule: Q01DX Z (ip), vehicle: water 91 % of control

CC(C)CCS(=O)(=O)OCCCCOS(=O)(=O)CCC(C)C
inactive: [1] 109 % of control | [2] 104 % of control | [7] 106 % of control | [8] 105 % of control | [3] 101 % of control | [9] 102 % of control | [10] 105 % of control | [4] 103 % of control | [11] 109 % of control | [12] 106 % of control

CN(C)C(=S)SCC(=O)NC(CO)C(=O)O (stereo not drawn)
inactive: dose: 100.0 mg/kg/injection, schedule: Q04DX002 (ip), vehicle: saline with Tween-80 100 % of control | dose: 200.0 mg/kg/injection, schedule: Q04DX002 (ip), vehicle: saline with Tween-80 107 % of control | dose: 400.0 mg/kg/injection, schedule: Q04DX002 (ip), vehicle: saline with Tween-80 111 % of control

CSc1nccc(Cl)n1
inactive: [1] 105 % of control | [2] 102 % of control | [3] 96 % of control | [4] 91 % of control

Cc1c(C/C(=N/O)C(=O)O)[nH]c(=S)[nH]c1=O
inactive: [13] 103 % of control | [14] 96 % of control | [15] 102 % of control

O=C(CNC(=O)c1ccccc1)N/N=C/c1cccc([N+](=O)[O-])c1
inactive: dose: 25.0 mg/kg/injection, schedule: Q01DX009 (ip), vehicle: saline with Tween-80 95 % of control | [16] 90 % of control | [17] 88 % of control

ICc1ccnc2ccccc12
inactive: dose: 100.0 mg/kg/injection, schedule: Q01DX001 (ip), vehicle: other 100 % of control | dose: 200.0 mg/kg/injection, schedule: Q01DX001 (ip), vehicle: other 103 % of control | dose: 400.0 mg/kg/injection, schedule: Q01DX001 (ip), vehicle: other 100 % of control

CCOc1ccc(/C=N/NC(=O)Cc2cccc3ccccc23)cc1OC
inactive: [7] 95 % of control | [9] 98 % of control | [11] 97 % of control

c1ccc2c(C3CSC3)nncc2c1
inactive: dose: 100.0 mg/kg/injection, schedule: Q01DX001 (ip), vehicle: saline 97 % of control | dose: 200.0 mg/kg/injection, schedule: Q01DX001 (ip), vehicle: saline 97 % of control | dose: 400.0 mg/kg/injection, schedule: Q01DX001 (ip), vehicle: saline 94 % of control

CC1=COC(C)(C=O)CC1 (stereo not drawn)
inactive: dose: 222.0 mg/kg/injection, schedule: Q01DX Z (ip), vehicle: methylcellulose (MC) 94 % of control | dose: 333.0 mg/kg/injection, schedule: Q01DX Z (ip), vehicle: methylcellulose (MC) 98 % of control | dose: 500.0 mg/kg/injection, schedule: Q01DX Z (ip), vehicle: methylcellulose (MC) 88 % of control

O=S(=O)(O)CCN1CCN(CCO)CC1
inactive: [5] 96 % of control | [6] 95 % of control | dose: 200.0 mg/kg/injection, schedule: Q01DX009 (ip), vehicle: saline 91 % of control | [18] 101 % of control | dose: 400.0 mg/kg/injection, schedule: Q01DX009 (ip), vehicle: saline 98 % of control | dose: 400.0 mg/kg/injection, schedule: Q04DX003 (ip), vehicle: saline 97 % of control

O=[N+]([O-])c1ccccc1S/N=C/c1ccccc1O
inactive: [19] 94 % of control | [20] 94 % of control | [21] 105 % of control

CSc1nc2c(n1-c1ccccc1)C(=O)C(OS(=O)(=O)c1ccccc1)C(=O)N2 (stereo not drawn)
inactive: dose: 75.0 mg/kg/injection, schedule: Q01DX001 (ip), vehicle: saline with Tween-80 95 % of control | dose: 150.0 mg/kg/injection, schedule: Q01DX001 (ip), vehicle: saline with Tween-80 98 % of control | dose: 300.0 mg/kg/injection, schedule: Q01DX001 (ip), vehicle: saline with Tween-80 98 % of control

CCC[CH2][Sn]([CH2]CCC)([S]C#N)[S]C#N
inactive: dose: 3.12 mg/kg/injection, schedule: Q04DX002 (ip), vehicle: gum acacia 101 % of control | dose: 6.25 mg/kg/injection, schedule: Q04DX002 (ip), vehicle: gum acacia 96 % of control | dose: 12.5 mg/kg/injection, schedule: Q04DX002 (ip), vehicle: gum acacia 96 % of control

NC(=O)c1ccccc1OCc1ccccc1
inactive: dose: 75.0 mg/kg/injection, schedule: Q04DX003 (ip), vehicle: Klucel (hydroxypropylcellulose) (HPC) 97 % of control | dose: 150.0 mg/kg/injection, schedule: Q04DX003 (ip), vehicle: Klucel (hydroxypropylcellulose) (HPC) 99 % of control | dose: 300.0 mg/kg/injection, schedule: Q04DX003 (ip), vehicle: Klucel (hydroxypropylcellulose) (HPC) 91 % of control

CC1(C)CC(=O)C(C)(CCc2ccccc2)C(=O)C1
inactive: [13] 97 % of control | [14] 98 % of control | [15] 95 % of control

CC(C)(CCC(=S)N1CCOCC1)c1ccccc1
inactive: [8] 101 % of control | [10] 102 % of control | [12] 102 % of control

CCn1c(COc2cc(C)cc(C)c2)c(COC(=O)c2cccc(Cl)c2)c2ccccc21
inactive: [16] 96 % of control | [17] 86 % of control | dose: 200.0 mg/kg/injection, schedule: Q01DX009 (ip), vehicle: saline with Tween-80 91 % of control

O=C1OCC/C1=C/OCCCCCCCCCCO/C=C1\CCOC1=O
inactive: [19] 91 % of control | [20] 91 % of control | [21] 94 % of control

Cc1cccc(CC(O)(CC(O)(c2ccccc2)c2ccccc2)c2ccccc2)c1 (stereo not drawn)
inactive: dose: 100.0 mg/kg/injection, schedule: Q04DX003 (ip), vehicle: acetone 96 % of control | dose: 200.0 mg/kg/injection, schedule: Q04DX003 (ip), vehicle: acetone 98 % of control | dose: 400.0 mg/kg/injection, schedule: Q04DX003 (ip), vehicle: acetone 97 % of control

CC(NC(=O)OCc1ccccc1)C(=O)NC(Cc1ccc(O)cc1)C(=O)OCc1ccccc1 (stereo not drawn)
inactive: [13] 97 % of control | [14] 90 % of control | [15] 93 % of control

O=S(=O)(Nc1ccccc1Cl)c1ccccc1
inactive: dose: 100.0 mg/kg/injection, schedule: Q01DX009 (ip), vehicle: gum acacia 100 % of control | dose: 100.0 mg/kg/injection, schedule: Q04DX003 (ip), vehicle: gum acacia 93 % of control | dose: 200.0 mg/kg/injection, schedule: Q01DX009 (ip), vehicle: gum acacia 98 % of control | dose: 200.0 mg/kg/injection, schedule: Q04DX003 (ip), vehicle: gum acacia 95 % of control | dose: 400.0 mg/kg/injection, schedule: Q01DX009 (ip), vehicle: gum acacia 94 % of control | dose: 400.0 mg/kg/injection, schedule: Q04DX003 (ip), vehicle: gum acacia 95 % of control

Cn1ncc(C(=O)O)c1NN=O
inactive: dose: 50.0 mg/kg/injection, schedule: Q04DX003 (ip), vehicle: saline 104 % of control | [2] 106 % of control | [6] 105 % of control | [3] 108 % of control | [18] 96 % of control | [4] 102 % of control
